From patent US20030125323A1, “Use of selective potassium channel openers” (priority 2001, published 2003)

Experiments:
[1] = tested on: obese female hyperinsulinemic nondiabetic Zucker rats; test: oral glucose tolerance test after 35 days treatment of obese Zucker rats; type: in vivo, rat; settings: FIG. 1
Description: 14 obese female hyperinsulinemic nondiabetic Zucker rats were treated with the test compound 6-chloro-3-(1-methylcylodopropyl)amino-4H-thieno[3,2-e]-1,2,4-thiadiazine 1,1-dioxide and 14 were treated with vehicle for 35 days. After treatment, oral glucose tolerance was tested and found to be improved in animals treated with 6-chloro-3-(1-methylcylodopropyl)amino-4H-thieno[3,2-e]-1,2,4-thiadiazine 1,1-dioxide and the improvement was associated with decreased hyperinsulinemia.

[2] = tested on: women with Polycystic Ovary Syndrome (PCOS); settings: Nestler et al. 1989; cited from earlier work
[3] = tested on: KATP-channels on pancreatic β-cells; settings: by activation of KATP-channels on pancreatic β-cells; Pirotte et al. 1993, 1994; cited from earlier work

Compound	hyperinsulinemia ([1]; associated with the improved glucose tolerance)	oral glucose tolerance ([1]; compared with vehicle)	concentrations of serum testosterone [2]	glycaemia (adverse effect due to the reduction in insulin) [2]	hyperinsulinaemia [2]	insulin release [3]
CC1(NC2=NS(=O)(=O)c3sc(Cl)cc3N2)CC1 [6-chloro-3-(1-methylcylodopropyl)amino-4H-thieno[3,2-e]-1,2,4-thiadiazine 1,1-dioxide]	decreased	improved				
CC1=Nc2ccc(Cl)cc2S(=O)(=O)N1 [diazoxide, 7-chloro-3-methyl-2H-1,2,4-benzothiadiazine 1,1-dioxide]			reduce	significantly hyperglycemic	reduce	inhibit
